Laboratory results: patent US20130096189A1, “USE OF GLABRANIN FOR STIMULATING HAIR GROWTH” (priority 2010, published 2013)

Test system: Fibroblast cells from the NIH3T3D4 cell line
Assay: In-vitro fibroblast cell growth in low serum (colourimetric cell number, Promega CellTiter), with or without potassium channel blockers
Type: cell-based
Settings: for Data (absorbance at 450 nM), cell number: 5 days, mean ± SD, 8 replicates
Protocol: The assay described hereinbelow looks at the effect of an active on potentiation of cell growth in a low nutrient environment, ie at the effects of the active on cell growth factors which are mitogenic, rather than on the identification of an active which itself is mitogenic.
Glabranin (TimTec) was added in 50 μL of dimethylsulphoxide (DMSO) and vortexed to dissolve. […] of the glabranin in DMSO was added to Dulbeccos Minimum Essential Medium (DMEM) containing 2% v/v foetal calf serum (FCS) to give a 10 μg/mL glabranin solution. Serial dilutions were prepared using DMSO/DMEM/FCS as above. 1 mM minoxidil in DMSO/DMEM/FCS as above was used as a positive control. A DMSO control in DMEM containing 2% v/v FCS was also prepared.
Fibroblast cells from the NIH3T3D4 cell line (European collection of animal cell cultures, Health Protection Agency Porton Down, England) were cultured in DMEM media in the absence of antibiotics. The cells were removed using 10 mL of 0.25% w/w trypsin and 0.038% w/v EDTA in Hank's medium for 5 minutes, 10 mL DMEM containing 10% v/v FCS was added and the cells were spun down at 1000 rpm for 2 minutes. After removing the medium the cells were washed in 10 mL of DMEM containing 10% v/v FCS and spun at 1000 rpm for 2 minutes. The cells were then resuspended in 10 mL of DMEM containing 10% v/v FCS and counted using a cell counting chamber. A suspension of cells containing 5000 cells per 100 μL (50,000 cells per mL) was prepared and 100 μL of the cell suspension was plated out into a 96 well plate. The cells were allowed to adhere overnight in an incubator at 37 degrees centigrade in an atmosphere of 5% v/v CO2 in air. After washing the wells thrice with DMEM (without FCS), 100 μL of the test solution (containing […] glabranin per mL DMSO/DMEM/FCS with or without 10 μM glibenclamide (a potassium ion channel blocker) and 0.1 mM tetraethylammonium (TEA is a potassium ion channel blocker which directly binds to the channel) was added to each of eight wells. Fresh media containing glabranin was added every day for 5 days.
Cell numbers were determined after 5 days in test medium using a colourimetric method (Promega CellTiter Reagent from Promega). 20 μL Reagent was added to each well and the plate incubated as before for one hour.

Row | Structure (SMILES) | Data (absorbance at 450 nM), cell number (Minoxidil 75 μM in 2% FCS/DMSO) | Data (absorbance at 450 nM), cell number (glabranin 0.01 μg/ml in 2% FCS/DMSO) | Data (absorbance at 450 nM), cell number (glabranin 0.1 μg/ml in 2% FCS/DMSO) | Data (absorbance at 450 nM), cell number (glabranin 1 μg/ml in 2% FCS/DMSO) | potassium channel opening leading to fibroblast cell growth (conclusion from table 1) (growth increase reversed by potassium channel blockers)
1 | Nc1cc(N2CCCCC2)nc(N)[n+]1[O-] [Minoxidil, reference compound] | 0.36 ± 0.04 | – | – | – | –
2 | CC(C)=CCc1c(O)cc(O)c2c1O[C@H](c1ccccc1)CC2=O [glabranin, (2S)-5,7-dihydroxy-8-(3-methylbut-2-enyl)-2-phenyl-2,3-dihydrochromen-4-one] | – | 0.34 ± 0.02 | 0.34 ± 0.02 | 0.31 ± 0.02 | potassium channel opener
